In patent EP0828726B1, “TRICYCLIC INHIBITORS OF MATRIX METALLOPROTEINASES” (WARNER-LAMBERT COMPANY, priority 1995, dated 1996):

Tests used:
[1] = system: Mycobacterium footpad edema; assay: Mycobacterium footpad edema assay (MFE); assay type: in vivo, Wistar rats; details: in Rattus norvegicus, po, paw swelling on third day
Protocol: The activity of Example 2 as a general inhibitor of inflammation was tested using the Mycobacterium footpad edema assay (MFE) in Wistar rats. Compound was administered daily by gavage at 2 mg/kg, 10 mg/kg, or 50 mg/kg.
Male outbred Wistar rats (110-125 g, Charles River Labs, Portage, MI) were used in this study. Rats were housed for a minimum of 1 week before use. Food and water were supplied ad libitum. Foot pad edema was induced following the method described by Martel R.R. and Klicius J., "Comparisons in rats of the antiinflammatory and gastric irritant effects of etodolac with several clinically effective antiinflammatory drugs", Agents and Actions, 1982;12:295. Briefly, male Wistar rats were injected subcutaneously into the right hind footpad with 0.1 mL of 5 mg/mL suspension of killed and dried Mycobacterium butyricum (Difco, Detroit, MI) in liquid paraffin. Compound was suspended in 0.5% hydroxypropylmethylcellulose (HPMC) containing 0.2% Tween-80 and administered orally 1 hour before injection. Subsequent doses of the compound were given 24 and 48 hours after the Mycobacterium. Control animals were given vehicle alone. Swelling was assessed on the third day by subtracting the initial volume (determined immediately following the Mycobacterium injection) from the final volume of the treated paw. Paw volume was determined by mercury plethysmography. The percent inhibition of edema achieved in each compound-treated group was determined by comparison with swelling in the vehicle-treated group and the ID50 values were determined by regression analysis. Statistical significance between experimental groups was evaluated using a Student's t-test. […]

[2] = molecular target: T1, stromelysin-1 (full-length native enzyme) (Homo sapiens, UniProt P08254); assay: Thiopeptolide substrate IC50 assay, full-length stromelysin-1; assay type: biochemical
T1 construct: stromelysin-1 (full-length native enzyme)
Protocol: (§1) Experiments were carried out with both the full-length enzymes and the catalytic domains. […] IC50 values were determined using a thiopeptolide substrate, Ac-Pro-Leu-Gly-thioester-Leu-Leu-Gly-OEt (Ye Q.-Z., Johnson L.L., Hupe D.J., and Baragi V., "Purification and Characterization of the Human Stromelysin Catalytic Domain Expressed in Escherichia coli", Biochemistry, 1992;31:11231-11235). […] IC50 values for gelatinase B, and collagenase, were >100 µM.

[3] = molecular target: T2, gelatinase A (recombinant full-length enzyme) (Homo sapiens, UniProt P08253); assay: Thiopeptolide substrate IC50 assay, full-length gelatinase A; assay type: biochemical
T2 construct: gelatinase A (recombinant full-length enzyme)
T2 sequence (P08253 110-660): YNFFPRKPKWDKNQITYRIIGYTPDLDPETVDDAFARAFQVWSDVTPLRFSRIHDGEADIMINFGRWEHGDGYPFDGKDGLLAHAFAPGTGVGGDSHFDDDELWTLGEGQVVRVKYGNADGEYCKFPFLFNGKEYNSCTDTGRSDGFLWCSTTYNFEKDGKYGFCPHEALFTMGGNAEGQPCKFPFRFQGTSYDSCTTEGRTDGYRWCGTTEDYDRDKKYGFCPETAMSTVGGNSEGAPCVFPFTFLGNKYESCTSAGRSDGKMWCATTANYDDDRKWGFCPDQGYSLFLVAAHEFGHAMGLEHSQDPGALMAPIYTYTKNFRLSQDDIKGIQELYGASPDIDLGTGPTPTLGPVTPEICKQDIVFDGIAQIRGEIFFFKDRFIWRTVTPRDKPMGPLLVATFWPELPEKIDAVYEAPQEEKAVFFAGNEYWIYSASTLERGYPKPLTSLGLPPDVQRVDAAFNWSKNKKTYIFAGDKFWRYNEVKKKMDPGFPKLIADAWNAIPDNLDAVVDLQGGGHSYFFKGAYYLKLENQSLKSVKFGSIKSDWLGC
Protocol: as §1

[4] = molecular target: T3, SCD (stromelysin-1 catalytic domain) (Homo sapiens, UniProt P08254); assay: Thiopeptolide substrate IC50 assay, stromelysin-1 catalytic domain; assay type: biochemical
T3 construct: The gene for the catalytic domain of stromelysin-1, SCD, was constructed by removing the propeptide and C-terminal domain; made in house; host or cells: Escherichia coli
Description: (§2) Matrix metalloproteinases share high sequence homology and the catalytic domains of each of the MMPs can be identified by sequence alignment. The gene for the catalytic domain of stromelysin-1, SCD, was constructed by removing the propeptide and C-terminal domain (Ye Q.-Z., Johnson L.L, Hupe D.J., and Baragi V., "Purification and Characterization of the Human Stromelysin Catalytic Domain Expressed in Escherichia coli", Biochemistry, 1992;31:11231-11235). The gelatinase A catalytic domain, GCD, was similarly constructed with the additional removal of the fibronectin-like insert which interrupts the catalytic domain (Ye Q.-Z., Johnson L.L, Yu A.E., and Hupe D., "Reconstructed 19 kDa Catalytic Domain of Gelatinase A is an Active Proteinase", Biochemistry, 1995;34:4702-4708). Both truncated proteins cleave synthetic peptide substrates and the natural substrates proteoglycan and gelatin in a manner similar to the full-length enzymes and can be used to identify matrix metalloproteinase inhibitors.
(§3) Experiments were carried out with both the full-length enzymes and the catalytic domains. […] IC50 values were determined using a thiopeptolide substrate, Ac-Pro-Leu-Gly-thioester-Leu-Leu-Gly-OEt (Ye Q.-Z., Johnson L.L., Hupe D.J., and Baragi V., "Purification and Characterization of the Human Stromelysin Catalytic Domain Expressed in Escherichia coli", Biochemistry, 1992;31:11231-11235). […]

[5] = molecular target: T4, gelatinase B (recombinant full-length enzyme) (Homo sapiens, UniProt P14780); assay: Thiopeptolide substrate IC50 assay, gelatinase B; assay type: biochemical
T4 construct: gelatinase B (recombinant full-length enzyme)
Protocol: as §1

[6] = system: EAE; assay: Experimental allergic encephalomyelitis (EAE), Lewis rat acute model; assay type: in vivo
Protocol: Female Lewis rats were purchased from Harlan Sprague-Dawley (Indianapolis, IN) and were used at 8 to 10 weeks of age. Active EAE was induced by injection of 0.05 mL emulsion of myelin basic protein (MBP) with complete Freund's adjuvant (CFA), containing 25 µg guinea pig MBP and 100 µg Mycobacterium butyricum (Difco Laboratories, Detroit, MI) into one hind footpad. Immunized rats were observed daily for clinical signs of EAE and scored as follows: 0, no symptoms; 1, loss of tail tonicity; 2, paresis; 3, hind limb paralysis, often accompanied by incontinence; and 4, death. Formalin-fixed brain slice sections were stained with hematoxylin-eosin and evaluated microscopically for perivascular and parenchymal infiltration. Compound was administered by gavage as a solution in sterile saline in a volume of 500 µL. […] Several different protocols were used to define the efficacy and timing requirements for potency.
Protocol 1: Compound was administered daily at 50 mg/kg beginning on Day 0 and continuing through Day 14, with MBP in CFA administered on Day 0 also. […] N = 5 for all groups.
Controls run in parallel included CFA only and MBP in CFA. N = 4 for treatment groups. N = 8 for controls.

[7] = molecular target: T5, GCD (recombinant gelatinase A catalytic domain) (Homo sapiens, UniProt P08253, DEL220-393); assay: Thiopeptolide substrate IC50 assay, gelatinase A catalytic domain; assay type: biochemical
T5 construct: The gelatinase A catalytic domain, GCD, was similarly constructed with the additional removal of the fibronectin-like insert which interrupts the catalytic domain; made in house
Description: as §2, §3

[8] = Protocol 1: CFA + MBP, 50 mg/kg daily oral Day 0 through Day 14
[9] = Protocol 2: CFA + MBP, 10 mg/kg alternate days
[10] = Protocol 2: CFA + MBP, 50 mg/kg alternate days

T4 sequence (P14780 94-707): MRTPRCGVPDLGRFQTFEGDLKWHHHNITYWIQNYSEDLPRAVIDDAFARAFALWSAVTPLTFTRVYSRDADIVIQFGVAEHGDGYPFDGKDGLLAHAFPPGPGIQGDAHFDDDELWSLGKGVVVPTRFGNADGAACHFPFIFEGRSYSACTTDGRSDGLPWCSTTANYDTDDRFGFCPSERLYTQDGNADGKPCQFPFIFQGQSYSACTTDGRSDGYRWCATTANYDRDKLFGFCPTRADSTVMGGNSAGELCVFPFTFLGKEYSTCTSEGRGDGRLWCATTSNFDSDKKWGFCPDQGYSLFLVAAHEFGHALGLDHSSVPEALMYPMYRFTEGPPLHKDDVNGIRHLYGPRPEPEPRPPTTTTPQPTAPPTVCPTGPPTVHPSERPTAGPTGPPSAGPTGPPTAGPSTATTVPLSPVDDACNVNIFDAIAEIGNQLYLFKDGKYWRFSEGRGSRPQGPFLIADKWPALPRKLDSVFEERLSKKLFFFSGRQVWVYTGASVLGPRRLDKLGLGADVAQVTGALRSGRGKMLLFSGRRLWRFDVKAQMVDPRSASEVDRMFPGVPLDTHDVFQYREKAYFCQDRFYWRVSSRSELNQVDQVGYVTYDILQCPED
T5 sequence (P08253 with tags, fused parts or gaps DEL220-393): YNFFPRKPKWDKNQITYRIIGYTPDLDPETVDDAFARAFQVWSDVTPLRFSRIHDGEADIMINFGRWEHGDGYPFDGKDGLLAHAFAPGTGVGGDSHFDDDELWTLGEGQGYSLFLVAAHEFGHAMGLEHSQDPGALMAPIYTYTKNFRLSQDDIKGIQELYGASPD
T1 sequence (P08254 100-477): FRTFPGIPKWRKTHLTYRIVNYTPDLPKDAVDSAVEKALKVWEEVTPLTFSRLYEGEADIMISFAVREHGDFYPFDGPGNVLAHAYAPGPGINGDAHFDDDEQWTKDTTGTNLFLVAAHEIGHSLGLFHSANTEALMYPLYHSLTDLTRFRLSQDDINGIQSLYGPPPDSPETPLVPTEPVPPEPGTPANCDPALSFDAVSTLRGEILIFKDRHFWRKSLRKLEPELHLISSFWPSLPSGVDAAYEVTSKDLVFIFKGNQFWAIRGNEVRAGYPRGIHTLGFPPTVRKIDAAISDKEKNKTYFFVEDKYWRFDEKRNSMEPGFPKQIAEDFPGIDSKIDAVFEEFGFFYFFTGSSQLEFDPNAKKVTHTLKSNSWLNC
T3 sequence (P08254 100-272 limits assumed): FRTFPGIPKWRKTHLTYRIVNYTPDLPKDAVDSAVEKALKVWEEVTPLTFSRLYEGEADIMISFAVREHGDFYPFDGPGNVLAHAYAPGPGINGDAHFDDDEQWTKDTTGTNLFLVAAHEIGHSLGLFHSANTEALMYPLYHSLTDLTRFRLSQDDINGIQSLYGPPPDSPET

O=C(O)CCC(=NO)c1ccc2oc3ccccc3c2c1 [Example 2, 4-Dibenzofuran-2-yl-4-hydroximino-butyric acid]
inhibition at 2 mg/kg ([1]; 2 mg/kg daily by gavage): 23% | inhibition at 10 mg/kg ([1]; 10 mg/kg daily by gavage): 27% | inhibition at 50 mg/kg ([1]; 50 mg/kg daily by gavage): 40% | IC50 [2]: 7.64 µM | IC50 [3]: 1.31 µM | IC50 [4]: 7.12 µM | IC50 [5]: > 100 µM | treated animals showing reduction of symptoms ([6]; Protocol 1, 50 mg/kg daily): 20% | treated animals showing total inhibition of symptoms ([6]; Protocol 1, 50 mg/kg daily): 80% | leukocyte migration across the blood-brain barrier ([6]; Protocol 1, 50 mg/kg daily, histology of brain slices): completely prevented | percentage of animals responding ([6]; Protocol 1, 50 mg/kg daily, total inhibition or reduction of symptoms): 100% | Day of Peak Expression [6, 8]: 12 | Effect on EAE Rats (≥Paresis/ Total) [6, 8]: 1/5 | Clinical Grade at Peak of Disease ([6]; Protocol 1: CFA + MBP, 50 mg/kg daily oral Day 0 through Day 14, score 0-4, N = 5): 1.0 | Effect on EAE Rats (≥Paresis/ Total) ([6]; Protocol 1: CFA only (no MBP), 50 mg/kg daily oral): 0/5 | Clinical Grade at Peak of Disease ([6]; Protocol 1: CFA only (no MBP), 50 mg/kg daily oral, N = 5): 0 | Day of Peak Expression [6, 9]: 14 | Effect on EAE Rats (≥Paresis/ Total) [6, 9]: 0/4 | Clinical Grade at Peak of Disease ([6]; Protocol 2: CFA + MBP, 10 mg/kg on Day 0 and alternate days through Day 14, N = 4): 0.6 | Day of Peak Expression [6, 10]: 15 | Effect on EAE Rats (≥Paresis/ Total) [6, 10]: 0/4 | Clinical Grade at Peak of Disease ([6]; Protocol 2: CFA + MBP, 50 mg/kg on Day 0 and alternate days through Day 14, N = 4): 0.8 | IC50 [7]: 0.04 µM
